# In US12024504B2, “1-methyl-1H-pyrazol-3-yl derivatives for use in the treatment of neovascular diseases” (EXONATE LIMITED, priority 2021, dated 2024):
# pIC50: −log10 of the molar value.
# Experiments:
# [1] = Rabbit pharmacokinetic study (eye drop); format: in vivo; settings: single 50 μL eye drop, 500 μg/mL, 1, 4, 12 or 24 hours
# Procedure: Rabbits were treated with a single 50 μL eye drop of pazopanib at 80 μg/ml (maximum limit of solubility) and compound R at 500 μg/mL in the initial eye drop formulation containing 1% hydroxypropyl methyl cellulose, 0.2% tyloxapol, 3.4% dextrose, 0.006% benzalkonium chloride, and 0.025% ethylenediaminetetraacetic acid with 1% DMSO in PBS or with a single 50 μL eye drop of compound 1 at 500 μg/mL in the eye drop formulation containing 7% poly-oxyl-40-stearate and 4% dextrose in PBS. No difference between the eye drop formulations was confirmed in a separate study. Rabbits were killed at the indicated time points after the eye drop, blood and eyes taken, and the retina dissected from the choroid and sclera, incisions made, and laid out flat. Retina, RPE/choroid and sclera eye compartments were dissected into 7 different areas. All samples were weighed. Compound was extracted by reverse phase extraction from the retina and choroid/sclera samples and the plasma as above, and amount determined by mass spectrometry in different areas of the eye and in the blood. […]
# To determine if the compounds could access the RPE of an animal with a large eye, a rabbit was exposed to 500 μg/mL of the compound as an eye drop and the concentrations in the retina, sclera, vitreous and other eye tissues (cornea); lens; RPE/choroid were measured. […]
# [2] = tested on: choroidal neovascularisation; experiment: Laser-induced choroidal neovascularisation (CNV); format: in vivo, C57/B6 mice
# Procedure: 6-8 week-old female C57/B6 mice were anesthetized with an intraperitoneal injection of a mixture of 50 mg/kg ketamine and 0.5 mg/kg medetomidine. The pupils were immediately dilated by topical (eyedrop) application with a dilator such as 5% phenylephrine hydrochloride and 1% tropicamide. Four photocoagulation lesions were delivered with a green Merilas 532α laser (450 mW, 130 ms) between the “large” retinal vessels in clear space with no vessels in a peripapillary distribution at a distance of 1-2 disc-diameters in each eye. Only clean laser lesions with a subretinal bubble at the time of treatment were included in the study. Immediately following laser photocoagulation the animals were given topical eye drops of candidate compounds twice daily at 2 μg/mL, 0.2 μg/mL or 0.066 μg/mL or eye drop formulation control as indicated (10 μL, eyes held for 30 seconds to prevent animal wiping drop away). Experiments were performed with an initial eye drop formulation containing 1% hydroxypropyl methyl cellulose, 0.2% tyloxapol, 3.4% dextrose, 0.006% benzalkonium chloride, and 0.025% ethylenediaminetetraacetic acid with 1% DMSO in PBS and data were confirmed in a second eye drop formulation containing 7% poly-oxyl-40-stearate and 4% dextrose in PBS.
# After one week, mice were anesthetized with an intraperitoneal injection of a mixture of 50 mg/kg ketamine and 0.5 mg/kg medetomidine. […]
# VEGF-A165b and panVEGF = experiment: STZ model of diabetes, retinal VEGF immunoblotting; format: in vivo, Norway Brown rats; settings: diabetic rats, bidaily eye drops for 28 days, Western blot
# Procedure: To determine whether compound 1 could effectively switch the splicing of VEGF in a model of diabetes we used the STZ model of diabetes in Norway Brown rats. Diabetic animals were treated with twice daily eye drops of compound 1 for four weeks and killed, and the retina dissected. Protein was extracted and subjected to immunoblotting for VEGF-A165b and panVEGF.
# [3] = Porcine scleral permeability (modified Ussing chamber); format: in vitro ADME; settings: pig, pH 7.4, porcine excised eye tissue, 10 μg/mL compound on donor side
# Procedure: Scleral permeability was measured using a modified Ussing chamber assembly in the initial eye drop formulation containing 1% hydroxypropyl methyl cellulose, 0.2% tyloxapol, 3.4% dextrose, 0.006% benzalkonium chloride, and 0.025% ethylenediaminetetraacetic acid with 1% DMSO in PBS (pH 7.4). Porcine excised eye tissues were mounted in the chambers such that the episcleral side faced the donor chamber and the retinal side faced the receiver chamber. The chambers were filled with equal volumes of eye drop formulation, with (donor side) or without (receiver side) 10 μg/mL compound. After 24 hours tissue was removed from the chamber and the receiver side (“vitreous”) sampled. Tissue was dissected into sclera, choroid/RPE, and retina and homogenised. A tracer (SPHINX7; WO 2015/159103) was added, and tissue extracted by acetonitrile extraction as described in Batson et al (2017). Compounds were then analysed by mass spectrometry as described in Batson et al (2017).
# To determine whether compounds could get across the sclera of a larger animal, porcine sclera was clamped between two chambers and compounds were added to the sclera with eye drop formulation added to the bottom chamber and compounds added to the top chamber. After 24 hours, the fluid from the bottom chamber (vitreous) and the retinal tissue was isolated and compounds purified by methanol or acetonitrile extraction and HPLC.
# SRPK1 = target: T1, SRPK1 (Homo sapiens, UniProt Q96SB4); experiment: In vitro kinase assay (radioactive filter binding, 33P ATP); format: biochemical
# T1 construct: purchased MRC Dundee Kinase Centre (external assay service)
# T1 sequence (Q96SB4 whole entry): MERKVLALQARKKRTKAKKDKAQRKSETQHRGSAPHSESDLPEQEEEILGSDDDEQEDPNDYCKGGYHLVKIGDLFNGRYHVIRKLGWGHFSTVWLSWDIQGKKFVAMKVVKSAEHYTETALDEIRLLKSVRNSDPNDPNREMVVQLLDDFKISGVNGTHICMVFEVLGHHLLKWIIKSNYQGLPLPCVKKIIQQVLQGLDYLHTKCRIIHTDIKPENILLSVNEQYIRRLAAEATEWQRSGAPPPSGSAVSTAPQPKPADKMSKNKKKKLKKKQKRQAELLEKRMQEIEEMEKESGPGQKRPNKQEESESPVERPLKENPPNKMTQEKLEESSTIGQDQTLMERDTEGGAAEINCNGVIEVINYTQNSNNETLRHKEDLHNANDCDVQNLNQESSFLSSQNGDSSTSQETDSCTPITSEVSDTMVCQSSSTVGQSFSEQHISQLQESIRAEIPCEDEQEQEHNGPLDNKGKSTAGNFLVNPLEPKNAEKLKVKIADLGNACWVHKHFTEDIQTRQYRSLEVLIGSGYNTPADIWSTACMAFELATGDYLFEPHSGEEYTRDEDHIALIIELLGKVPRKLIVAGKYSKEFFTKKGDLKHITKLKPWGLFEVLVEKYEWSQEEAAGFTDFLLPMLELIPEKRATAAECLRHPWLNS
# Procedure: Kinase assays were carried out by the MRC Dundee Kinase Centre using a radioactive filter binding assay using ^33P ATP (Hastie, et al 2006. Nat Protoc. 2006; 1(2):968-71; Bain, et al 2007. Biochem J. 2007 Dec. 15; 408(3):297-315).
# pan-VEGF and VEGF-A165b = experiment: Non-human primate retinal VEGF immunoblotting; format: in vivo, Cynomolgus monkeys; settings: monkey
# Procedure: Retina sections sampled from half of the eye were homogenised in NP40 lysis buffer as described in Gammons et al., 2013. The extracts were then immunoblotted using either rabbit anti-panVEGF (Santa Cruz A20 sc-152; 1:500) or mouse anti-VEGFi65b (MAB3045; R&D; 1:500).
# To determine whether compound 1 could penetrate into the retina of primates we dosed cynomologous monkeys with 0.5, 1.0 or 1.5 mg/mL compound 1 twice a day for 21 days. […] Aqueous taps and plasma samples were taken during the treatment and compound 1 measured in the fluid. […] To determine if these doses were sufficient to inhibit angiogenic VEGF-A isoform expression, retinal tissue was subjected to immunoblotting using pan-VEGF or VEGF-A165b antibodies.
# [4] = 3 weeks bidaily dosing, FIG. 10b
smiles,measurement,setting,value
"Cn1ccc(CN2CCN(c3ccc(C(F)(F)F)cc3NC(=O)c3ccc(C4CCOCC4)o3)CC2)n1 [Compound 1, N-(2-(4-((1-methyl-1H-pyrazol-3-yl)methyl)piperazin-1-yl)-5-(trifluoromethyl)phenyl)-5-(tetrahydro-2H-pyran-4-yl)furan-2-carboxamide]",Retinal penetration after eye drop,[1],better sustained penetration (e.g. at 4 hrs) than chemically similar molecules such as Compound R
same,Anti-angiogenic activity on lesion size versus reference compounds,"[2]; laser-induced mouse model of CNV, FIG. 7",same anti-angiogenic activity on lesion size as reference compounds
same,Inhibition of choroidal neovascularisation,"[2]; mouse, eye drops twice daily at 0.066 μg/mL, FIG. 7b",significantly inhibited
same,Proportion of VEGF-A165b to total VEGF,VEGF-A165b and panVEGF,increased
same,Total VEGF in retina,VEGF-A165b and panVEGF,total VEGF is reduced
same,VEGF-A165b in retina,VEGF-A165b and panVEGF,VEGF-A165b is increased
same,"Papp at 24 h, 10 μg/mL",[3],0.067 ×10⁻⁶ cm/s
same,pIC50,SRPK1,8.40
same,Total VEGF levels in retina,pan-VEGF and VEGF-A165b; [4],total VEGF levels are decreased
same,VEGF-A165b levels in retina,pan-VEGF and VEGF-A165b; [4],do not decrease and increase at 1 mg/ml
same,Ratio of angiogenic to anti-angiogenic VEGF-A in retina,pan-VEGF and VEGF-A165b; FIG. 10c,decreases
